pEC50: −log10 of the molar value.

For one assay, the system named is wild type laboratory HIV strain (HIV-1 strain LAI). The assay is described as follows: Antiviral cellular assay (MT4 cells, MTT), wild type. The note with it: Human immunodeficiency virus 1, MT4; read-out: EC50 value, wild-type HIV-LAI strain. The format is cell-based. On the procedure:
The compounds of the present invention were examined for anti-viral activity in a cellular assay. […] The cellular assay was performed according to the following procedure.
HIV- or mock-infected MT4 cells were incubated for five days in the presence of various concentrations of the inhibitor. At the end of the incubation period, the replicating virus in the control cultures has killed all HIV-infected cells in the absence of any inhibitor. Cell viability was determined by measuring the concentration of MTT, a yellow, water soluble tetrazolium dye that is converted to a purple, water insoluble formazan in the mitochondrial of living cells only. Upon solubilization of the resulting formazan crystals with isopropanol, the absorbance of the solution was monitored at 540 nm. The values correlate directly to the number of living cells remaining in the culture at the completion of the five day incubation. The inhibitory activity of the compound was monitored on the virus-infected cells and was expressed as EC50 and EC90. These values represent the amount of the compound required to protect 50% and 90%, respectively, of the cells from the cytopathogenic effect of the virus. The toxicity of the compound was measured on the mock-infected cells and was expressed as CC50, which represents the concentration of compound required to inhibit the growth of the cells by 50%. The selectivity index (SI) (ratio CC50/EC50) is an indication of the selectivity of the anti-HIV activity of the inhibitor. Wherever results are reported as e.g. pEC50 or pCC50 values, the result is expressed as the negative logarithm of the result expressed as EC50 or CC50 respectively.
Consider `O=c1ccc2[nH]c3ccccc3c2n1-c1ccc([N+](=O)[O-])cc1` [Compound 66], for which the pEC50 – broadly, the EC50 on a negative log10 scale, so that one unit is a factor of ten – is 4.49 to 6.00.

For the compound `Cn1c2ccccc2c2c1cc(C#N)c(=O)n2-c1ccc(-c2ccco2)cc1` [Compound 48], the pEC50 was 4.49 to 6.00.

As for `Cn1c2ccccc2c2c1cc(C#N)c(=O)n2-c1cccc([N+](=O)[O-])c1` [Compound 43], the pEC50 is greater than 6.00.

On to `N#Cc1cc2c(c3ccccc3n2C2CCCC2)n(-c2ccc([N+](=O)[O-])cc2)c1=O` [Compound 10], for which the negative logarithm of the EC50 (pEC50) was 4.49 to 6.00.

As to `N#Cc1cc2c(c3ccccc3n2Cc2ccccc2)n(-c2ccc([N+](=O)[O-])cc2)c1=O` [Compound 6], the pEC50 was 4.49 to 6.00.

`CCn1c2ccccc2c2c1cc(C#N)c(=O)n2-c1ccc([N+](=O)[O-])cc1` [Compound 9]: the pEC50 was greater than 6.00.

`O=C(O)c1ccc(-n2c(=O)ccc3[nH]c4ccccc4c32)cc1` [Compound 94]: the pEC50 is 4.49 to 6.00.

On to `Cn1c2ccccc2c2c1ccc(=O)n2-c1ccc(C(=O)O)cc1` [Compound 99], for which the pEC50 is 4.49 to 6.00.

Turning to `N#Cc1cc2[nH]c3ccccc3c2n(-c2ccc(Br)cc2)c1=O` [Compound 38], the pEC50 is 4.49 to 6.00.

In the case of `N#Cc1ccc(-n2c(=O)ccc3[nH]c4ccccc4c32)cc1` [Compound 93], the pEC50 was 4.49 to 6.00.

As for `N#Cc1cc2[nH]c3ccccc3c2n(-c2ccc(F)cc2)c1=O` [Compound 37], the pEC50 is less than 4.49.

As to `N#Cc1cc2[nH]c3ccccc3c2n(-c2ccc(F)c([N+](=O)[O-])c2)c1=O` [Compound 41], the pEC50 is 4.49 to 6.00.

With `Cn1c2ccccc2c2c1cc(C#N)c(=O)n2-c1ccc(Br)cc1` [Compound 39], the pEC50 was 4.49 to 6.00.

For `Cn1c2ccccc2c2c1cc(Cl)c(=O)n2-c1ccc(C(=O)O)cc1` [Compound 87], the negative-log EC50 (pEC50) was 4.49 to 6.00.

In the case of `N#Cc1cc2c(c3ccccc3n2CC(=O)O)n(-c2ccc([N+](=O)[O-])cc2)c1=O` [Compound 19], the pEC50 was 4.49 to 6.00.

In the case of `Cn1c2ccccc2c2c1cc(C#N)c(=O)n2-c1ccc(C#N)cc1` [Compound 46], the pEC50 was 4.49 to 6.00.

As for `CCCCn1c2ccccc2c2c1cc(C#N)c(=O)n2-c1ccc([N+](=O)[O-])cc1` [Compound 8], the pEC50 was greater than 6.00.

As to `Cn1c2ccccc2c2c1cc(Br)c(=O)n2-c1ccc([N+](=O)[O-])cc1` [Compound 68], the pEC50 is greater than 6.00.

`Cn1c2ccccc2c2c1cc(C(=N)NO)c(=O)n2-c1ccc([N+](=O)[O-])cc1` [Compound 70]: the pEC50 was 4.49 to 6.00.

On to `Cn1c2ccccc2c2c1ccc(=O)n2-c1ccc(/C(N)=N/O)cc1` [Compound 97], for which the pEC50 is 4.49 to 6.00.

In the case of `N#Cc1cc2[nH]c3ccccc3c2n(-c2cccc([N+](=O)[O-])c2)c1=O` [Compound 42], the negative-log EC50 (pEC50) was 4.49 to 6.00.

Regarding `Cn1c2ccccc2c2c1ccc(=O)n2-c1ccc([N+](=O)[O-])cc1` [Compound 67], the pEC50 was greater than 6.00.

`N#Cc1ccc(-n2c(=O)c(C#N)cc3[nH]c4ccccc4c32)cc1` [Compound 45]: the pEC50 is less than 4.49.

As for `Cn1c2ccccc2c2c1cc(C#N)c(=O)n2-c1ccc(F)cc1` [Compound 44], the pEC50 is less than 4.49.

For `Cn1c2ccccc2c2c1cc(C#N)c(=O)n2-c1ccc(N)cc1` [Compound 89], the negative logarithm of the EC50 (pEC50) was less than 4.49.

As for `Cn1c2ccccc2c2c1ccc(=O)n2-c1ccc(C#N)cc1` [Compound 96], the pEC50 is 4.49 to 6.00.

For the compound `Cn1c2ccccc2c2c1ccc(=O)n2-c1ccc(C(N)=O)cc1` [Compound 98], the pEC50 was 4.49 to 6.00.

Still in this assay, the particulars now being: Human immunodeficiency virus 1; WT; MT4 cells; read-out: pEC50 against wild type HIV-LAI strain (converted).
Turning to `CC(=O)CC1C(C#N)=C(N(C)C)N(c2ccc([N+](=O)[O-])cc2)c2c1n(C)c1ccccc21` (stereo not shown) [2-(dimethylamino)-4,5-dihydro-5-methyl-1-(4-nitrophenyl)-4-(2-oxopropyl)-1H-pyrido[3,2-b]indole-3-carbonitrile, reference compound], the EC50 is 3.16 µM.
